One experiment deals with Pseudomonas aeruginosa. The experiment is described as follows: MIC against clinical isolates. It is filed as cell-based. Particulars: unit assumed.
The test system of experiment [1] is Klebsiella pneumoniae. Kind of experiment: MIC against clinical isolates. It is filed as cell-based. As to conditions: unit assumed.
For experiment [2], the system named is β-lactamase, Pseudomonas aeruginosa GN 238. The experiment is described as follows: Resistant activity against β-lactamase, iodometric assay. The format is biochemical. Particulars: β-lactamase from Pseudomonas aeruginosa GN 238; Potassium Penicillin G = 100. The method, then: (3) Resistant activity against β-lactamase, Pseudomonas aerugionsa GN 238:
The resistant activity of each compound against β-lactamase was measured in the manner described below.
β-Lactamase was prepared from Pseudomonas aeruginosa GN 238. This microorganism was cultured in 100 ml of a medium containing 2 g of yeast extract, 10 g of polypeptone, 2 g of glucose, 7 g of disodium hydrogen phosphate, 2 g of potassium dihydrogen phosphate, 1.2 g of ammonium sulfate and 0.4 g of magnesium sulfate, per liter, in a 500-ml Erlenmeyer flask for 6 hrs. at 37° C. with shaking. The resulting cells were collected by centrifugation (5,000 r.p.m.×10 min.), washed three times with 0.1 M phosphate buffer (pH 7.0). Subsequently, the cells were subjected to sonication (20 KHz, 20 min.) and then centrifuged at 15,000 r.p.m. for 60 min. By using the supernatant of enzyme fluid, the resistance of each compound against β-lactamase was determined by the iodometric assay method. Each numeral shown in Table 7 is a relative activity value calculated by assuming as 100 the activity of the control Potassium Penicillin G.

For the next experiment, the system named is Escherichia coli. The experiment is described as follows: MIC against clinical isolates. The format is cell-based. Particulars: unit assumed.
For experiment [3], the system named is Klebsiella pneumoniae. The experiment is described as follows: MIC, plate method, standard strains. Particulars: Table 3, standard strain; unit assumed. It is filed as cell-based. The method, then: (§1) The minimum inhibitory concentration (MIC) was determined by the plate method disclosed in "Chemotherapy" (Japan), Vol. 16, (1968), pages 98-99. The culture medium used was a Heart infusion agar (pH 7.4). The number of the cells per plate used in the inoculum was 10^4 (10^6 cells/ml).

Another experiment deals with Escherichia coli NIHJ. The experiment is described as follows: MIC, plate method, standard strains. It is filed as cell-based. As to conditions: Table 3, standard strain; unit assumed. As for the experimental part: as §1
For a further experiment, the system named is Proteus vulgaris 3027. The experiment is described as follows: MIC, plate method, standard strains. It is filed as cell-based. Particulars: Table 3, standard strain; unit assumed. The method, then: as §1
Experiment [4] deals with Staphylococcus aureus 209p. Kind of experiment: MIC, plate method, standard strains. The format is cell-based. As to conditions: Table 3, standard strain, Heart infusion agar pH 7.4; unit assumed. The method, then: as §1
Experiment [5] relates to Pseudomonas aeruginosa I.F.O. The experiment is described as follows: MIC, plate method, standard strains. It is filed as cell-based. Particulars: Table 3, standard strain; unit assumed. As for the experimental part:
as §1

A further experiment concerns Staphylococcus aureus. Kind of experiment: MIC against clinical isolates. It is filed as cell-based. As to conditions: unit assumed.
The test system of the next experiment is Shigella sonnei. The experiment is described as follows: MIC against clinical isolates. It is filed as cell-based. As to conditions: Table 5-5, clinical isolate; unit assumed. The method, then: as §1
(§2) MIC was determined in the same manner as in the preceding paragraph (1).

Another experiment concerns Shigella flexneri. The experiment is described as follows: MIC against clinical isolates. It is filed as cell-based. Particulars: Table 5-5, clinical isolate; unit assumed. As for the experimental part: as §1, §2
For experiment [6], the target named is β-lactamase, Escherichia freundii GN 346 (Citrobacter freundii, UniProt Q46041). Kind of experiment: Resistant activity against β-lactamase, iodometric assay. The format is biochemical. As to conditions: control Cephalorizine = 100. The method, then:
(§3) (4) Resistant activity of each cephalosporin compound against β-lactamase, Proteus vulgaris GN 76 and Escherichia freundii GN 346:
(§4) The resistant activity of each cephalosporin compound against β-lactamase was measured in the manner described below.
(§5) β-lactamase was prepared from Proteus vulgaris GN 76 and Escherichia freundii GN 346. 10 ml of an overnight culture in Heart Infusion broth was diluted with 100 ml of a medium containing 2 g of yeast extract, 10 g of polypeptone, 2 g of glucose, 7 g of disodium hydrogen phosphate, 2 g of potassium dihydrogen phosphate, 1.2 g of ammonium sulfate and 0.4 g of magnesium sulfate, per liter, and incubated with shaking at 37° C. After incubation of 2 hrs, Penicillin G (50 μg/ml) was added as the inducer, and further incubated for 2 hrs. The resulting cells were collected by centrifugation (5,000 r.p.m.×10 min.) and washed two times with 0.1 M phosphate buffer (pH 7.0). Subsequently, the cells were subjected to sonication (20 KHz, 5 min.) and then centrifuged at 15,000 r.p.m. for 60 min. By using the supernatant of enzyme fluid, the stability of each compound against β-lactamase was determined by the iodometric assay method. Each numeral shown in Table 7-2 is a relative activity value calculated by assuming as 100 the activity of the control Cephalorizine.

Experiment [7] has as its target T1, β-lactamase, Proteus vulgaris GN 76 (Proteus vulgaris, UniProt P52664).
T1 construct: By using the supernatant of enzyme fluid; endogenous in cells; host or cells: Proteus vulgaris GN 76 (penicillin G-induced cells, sonicated, 15,000 r.p.m. supernatant)
Described as above. As to conditions: control Cephalorizine = 100. It is filed as biochemical. As for the experimental part:
as §3, §4, §5

From patent publication US4327097A, “Novel penicillins” (Toyama Chemical Co., Ltd., priority 1974, dated 1982) come the findings set out here.

Values after ≈ are worked out from the molar mass of the structure shown.

T1 sequence (P52664 30-300): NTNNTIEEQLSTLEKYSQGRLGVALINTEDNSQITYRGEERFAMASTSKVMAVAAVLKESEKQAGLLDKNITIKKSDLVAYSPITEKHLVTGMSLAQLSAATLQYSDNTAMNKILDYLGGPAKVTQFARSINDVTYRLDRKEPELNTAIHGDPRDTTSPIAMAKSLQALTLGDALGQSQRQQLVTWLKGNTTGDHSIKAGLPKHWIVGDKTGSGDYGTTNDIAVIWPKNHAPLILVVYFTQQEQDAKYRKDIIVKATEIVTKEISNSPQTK
Sequence of β-lactamase, Escherichia freundii GN 346 (Q46041 entry or part of it): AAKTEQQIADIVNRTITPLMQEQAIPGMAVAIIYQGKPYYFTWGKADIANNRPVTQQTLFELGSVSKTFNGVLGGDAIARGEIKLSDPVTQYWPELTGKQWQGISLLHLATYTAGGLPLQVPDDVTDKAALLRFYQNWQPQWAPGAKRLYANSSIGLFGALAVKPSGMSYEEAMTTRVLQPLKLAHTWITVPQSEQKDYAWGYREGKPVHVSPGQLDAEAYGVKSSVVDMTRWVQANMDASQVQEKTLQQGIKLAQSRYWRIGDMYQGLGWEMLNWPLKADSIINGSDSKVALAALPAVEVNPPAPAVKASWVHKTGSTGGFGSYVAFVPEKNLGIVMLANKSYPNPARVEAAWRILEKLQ

In the experiment on Pseudomonas aeruginosa (Table 5-3, clinical isolate), `CCN1CCN(C(=O)N[C@@H](C(=O)N[C@@H]2C(=O)N3[C@@H]2SC(C)(C)[C@@H]3C(=O)O)c2ccccc2)C(=O)C1=O` [Compound 36] came in with an MIC Pseudomonas aeruginosa GN 82 of 6.25 µg/mL (≈ 12.1 µM), an MIC Pseudomonas aeruginosa GN 163 of 6.25 µg/mL (≈ 12.1 µM), an MIC Pseudomonas aeruginosa GN 221 of 3.13 µg/mL (≈ 6.05 µM) and an MIC Pseudomonas aeruginosa GN 376 of 6.25 µg/mL (≈ 12.1 µM). In addition, in the experiment on Pseudomonas aeruginosa (Table 5-3, clinical isolate), the MIC Pseudomonas aeruginosa GN 383 turned out to be 6.25 µg/mL (≈ 12.1 µM) and the MIC Pseudomonas aeruginosa GN 1091 turned out to be 6.25 µg/mL (≈ 12.1 µM). The same molecule registered an MIC Klebsiella pneumoniae GN 917 against Klebsiella pneumoniae [1] (Table 5-4, clinical isolate) of 6.25 µg/mL (≈ 12.1 µM). For the same molecule, in experiment [2], the “Relative activity (%), resistant activity against β-lactamase” value worked out at 14%. In the experiment on Escherichia coli (Table 5-2, clinical isolate), this molecule displayed an MIC Escherichia coli GN 3435 of 1.57 µg/mL (≈ 3.03 µM), an MIC Escherichia coli GN 3452 of 3.13 µg/mL (≈ 6.05 µM), an MIC Escherichia coli GN 3481 of 3.13 µg/mL (≈ 6.05 µM) and an MIC Escherichia coli K-1 of 3.13 µg/mL (≈ 6.05 µM). For the same molecule, in the experiment with Escherichia coli (Table 5-2, clinical isolate), the MIC Escherichia coli K-2 was 3.13 µg/mL (≈ 6.05 µM) and the MIC Escherichia coli K-4 amounted to 1.57 µg/mL (≈ 3.03 µM). This molecule gave an MIC Klebsiella pneumoniae with Klebsiella pneumoniae [3] of under 1.57 µg/mL. This molecule had an MIC Esche--richin coil NIHJ against Escherichia coli NIHJ of under 1.57 µg/mL. This molecule had an MIC Proteus vulgaris 3027 with Proteus vulgaris 3027 of under 1.57 µg/mL. The same molecule yielded an MIC Staphylococcus aureus 209p in experiment [4] of under 1.57 µg/mL. In experiment [5], this molecule returned an MIC Pseudomonas aeruginosa I.F.C of 6.25 µg/mL (≈ 12.1 µM). In the experiment with Staphylococcus aureus (Table 5-1, clinical isolate), this molecule registered an MIC Staphylococcus aureus F-2 of 3.13 µg/mL (≈ 6.05 µM), an MIC Staphylococcus aureus F-3 of 1.57 µg/mL (≈ 3.03 µM), an MIC Staphylococcus aureus F-4 of 6.25 µg/mL (≈ 12.1 µM) and an MIC Staphylococcus aureus MS 8588 of 3.13 µg/mL (≈ 6.05 µM). Moreover, in the experiment with Staphylococcus aureus (Table 5-1, clinical isolate), the MIC Staphylococcus aureus MS 8596 was 3.13 µg/mL (≈ 6.05 µM), the MIC Staphylococcus aureus MS 8684 was found to be 3.13 µg/mL (≈ 6.05 µM) and the MIC Staphylococcus aureus MS 8713 was found to be 6.25 µg/mL (≈ 12.1 µM). Moreover, in the experiment with Shigella sonnei, the MIC Shigella sonnei JS 11232 stood at 50 µg/mL (≈ 96.6 µM) and the MIC Shigella sonnei JS 11755 was determined as 3.13 µg/mL (≈ 6.05 µM). Moreover, in the experiment on Shigella flexneri, the MIC Shigella flexneri JS 11215 was determined as 100 µg/mL (≈ 193 µM) and the MIC Shigella flexneri JS 11839 came out at 3.13 µg/mL (≈ 6.05 µM).
For the molecule `CC(=O)OCC1=C(C(=O)O)N2C(=O)[C@@H](NC(=O)Cc3cccs3)[C@H]2SC1` [Sodium Cephalothin, reference compound], the MIC Pseudomonas aeruginosa GN in the experiment with Pseudomonas aeruginosa (Table 6-3, clinical isolate, strain number not given) is over 200 µg/mL. Moreover, in the experiment on Pseudomonas aeruginosa (Table 6-3, clinical isolate), the MIC Pseudomonas aeruginosa GN4 was over 200 µg/mL, the MIC Pseudomonas aeruginosa GN 82 is over 200 µg/mL, the MIC Pseudomonas aeruginosa GN 163 is over 200 µg/mL and the MIC Pseudomonas aeruginosa GN 221 is over 200 µg/mL. In the experiment with Pseudomonas aeruginosa (Table 6-3, clinical isolate), this molecule yielded an MIC Pseudomonas aeruginosa GN 376 of over 200 µg/mL, an MIC Pseudomonas aeruginosa GN 1035 of over 200 µg/mL, an MIC Pseudomonas aeruginosa GN 1091 of over 200 µg/mL and an MIC Pseudomonas aeruginosa GN 2565 of over 200 µg/mL. The MIC Pseudomonas aeruginosa GN 2987 in the experiment with Pseudomonas aeruginosa (Table 6-3, clinical isolate) is over 200 µg/mL. In the experiment on Pseudomonas aeruginosa (Table 6-4, clinical isolate), the MIC Pseudomonas aeruginosa S-1 is over 200 µg/mL, the MIC Pseudomonas aeruginosa S-2 was over 200 µg/mL, the MIC Pseudomonas aeruginosa S-3 was over 200 µg/mL and the MIC Pseudomonas aeruginosa S-4 was over 200 µg/mL. Further, the “Relative activity (%) against β-lactamase, E. freundii GN 346” value (“Relative activity (%) … E. freundii GN 346” for short) in experiment [6] stood at 17%. Further, in [7], the “Relative activity (%) against β-lactamase, Pr. vulgaris GN 76” value (“Relative activity (%) … Pr. vulgaris GN 76” for short) is reported as 105%. In the experiment on Klebsiella pneumoniae [1] (Table 6-4, clinical isolate), this molecule yielded an MIC Klebsiella pneumoniae GN 917 of 3.13 µg/mL, an MIC Klebsiella pneumoniae GN 4081 of 12.5 µg/mL and an MIC Klebsiella pneumoniae GN 4117 of 6.25 µg/mL. Besides, in the experiment on Escherichia coli (Table 6-2, clinical isolate), the MIC Escherichia coli GN 3435 was determined as 6.25 µg/mL, the MIC Escherichia coli GN 3452 was determined as 12.5 µg/mL, the MIC Escherichia coli GN 3481 came to 12.5 µg/mL and the MIC Escherichia coli K-1 came to 6.25 µg/mL. In the experiment on Escherichia coli (Table 6-2, clinical isolate), this molecule showed an MIC Escherichia coli K-2 of 6.25 µg/mL. In the experiment on Staphylococcus aureus (Table 6-1, clinical isolate), this molecule yielded an MIC Staphylococcus aureus F-1 of under 0.4 µg/mL, an MIC Staphylococcus aureus F-2 of under 0.4 µg/mL, an MIC Staphylococcus aureus F-3 of under 0.4 µg/mL and an MIC Staphylococcus aureus F-4 of under 0.4 µg/mL. In the experiment on Staphylococcus aureus (Table 6-1, clinical isolate), this molecule came in with an MIC Staphylococcus aureus F-5 of 1.56 µg/mL, an MIC Staphylococcus aureus MS 8588 of under 0.4 µg/mL, an MIC Staphylococcus aureus MS 8596 of under 0.4 µg/mL and an MIC Staphylococcus aureus MS 8619 of under 0.4 µg/mL. Moreover, in the experiment with Staphylococcus aureus (Table 6-1, clinical isolate), the MIC Staphylococcus aureus MS 8684 is under 0.4 µg/mL and the MIC Staphylococcus aureus MS 8713 is under 0.4 µg/mL.
`CCN1CCN(C(=O)NC(C(=O)NC2C(=O)N3C(C(=O)O)=C(CSc4nnnn4C)CSC23)c2ccccc2)C(=O)C1=O` (centres unmarked) [Compound No. 69] came in with an MIC Pseudomonas aeruginosa GN4 against Pseudomonas aeruginosa (Table 6-3, clinical isolate) of 25 µg/mL (≈ 39.7 µM). In addition, the “Relative activity (%) … E. freundii GN 346” value in experiment [6] stood at 0.1%. In addition, the “Relative activity (%) … Pr. vulgaris GN 76” value in experiment [7] is reported as 4%.
For the molecule `CC(=O)OCC1=C(C(=O)O)N2C(=O)[C@@H](NC(=O)[C@H](N)c3ccccc3)[C@H]2SC1` [Sodium Cephaloglycin, reference compound], in the experiment with Pseudomonas aeruginosa (Table 6-3, clinical isolate), the MIC Pseudomonas aeruginosa GN4 is over 200 µg/mL. In the experiment on Pseudomonas aeruginosa (Table 6-4, clinical isolate), the MIC Pseudomonas aeruginosa S-4 is over 200 µg/mL. Besides, the “Relative activity (%) … E. freundii GN 346” value in experiment [6] is on record as 0.3%. Moreover, in experiment [7], the “Relative activity (%) … Pr. vulgaris GN 76” value is recorded as 1300%.
